Measured values taken from patent publication US20030130297A1, “Oral administration of 6-hydroxy-oxymorphone for use as an analgesic” (Endo Pharmaceuticals, Inc., priority 2001, published 2003).

Tests used:
Opiate, Delta 1 = experiment: Opiate Delta 1 receptor binding assay
[1] = Pharmacokinetic studies: blood plasma levels and pain relief over 12 hours after administration of oxymorphone; type: in vivo; conditions: for Time at which blood plasma levels peak: after administration of oxymorphone
Procedure: In two separate studies, blood plasma levels and indications of pain relief were recorded over a 12 hour period after.
After this time, oxymorphone levels again drop and eventually fall to levels near the earlier plateau.
After the initial peak, however, a more or less steady decline in the 6-hydroxy oxymorphones plasma levels is observed.
The amount administered will be dependent upon normal criteria such as patient weight, intensity of pain, and other factors. Based on the pharmacokinetic studies, blood plasma levels around at least 0.2 ng/mL will provide some analgesia. The upper plasma level limit will be ultimately established by safety concerns. […] Subsequent doses may be required to maintain these blood levels.

[2] = target: Opiate, Delta 2 (Human Recombinant) (Homo sapiens, UniProt P41143); experiment: Opiate Delta 2 receptor binding assay
[3] = target: Opiate, Kappa (Human Recombinant (Homo sapiens, UniProt P41145)); experiment: Opiate Kappa receptor binding assay
[4] = target: Opiate, Mu (Human Recombinant) (Homo sapiens, UniProt P35372); experiment: Opiate Mu receptor binding assay
Sequence of Opiate, Mu (Human Recombinant) (P35372 whole entry): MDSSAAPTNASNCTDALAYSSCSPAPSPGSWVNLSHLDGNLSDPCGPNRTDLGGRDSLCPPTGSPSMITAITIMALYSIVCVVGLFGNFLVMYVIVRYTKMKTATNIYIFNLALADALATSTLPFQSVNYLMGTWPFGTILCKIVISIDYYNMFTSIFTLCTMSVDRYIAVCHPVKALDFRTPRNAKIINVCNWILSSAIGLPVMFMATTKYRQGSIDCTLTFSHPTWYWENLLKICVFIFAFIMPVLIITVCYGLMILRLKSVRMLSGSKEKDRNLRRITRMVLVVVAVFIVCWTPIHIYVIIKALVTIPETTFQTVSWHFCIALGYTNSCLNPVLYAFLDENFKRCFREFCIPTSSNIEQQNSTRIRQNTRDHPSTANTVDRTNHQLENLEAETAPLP

Sequence of Opiate, Kappa (Human Recombinant (P41145 whole entry): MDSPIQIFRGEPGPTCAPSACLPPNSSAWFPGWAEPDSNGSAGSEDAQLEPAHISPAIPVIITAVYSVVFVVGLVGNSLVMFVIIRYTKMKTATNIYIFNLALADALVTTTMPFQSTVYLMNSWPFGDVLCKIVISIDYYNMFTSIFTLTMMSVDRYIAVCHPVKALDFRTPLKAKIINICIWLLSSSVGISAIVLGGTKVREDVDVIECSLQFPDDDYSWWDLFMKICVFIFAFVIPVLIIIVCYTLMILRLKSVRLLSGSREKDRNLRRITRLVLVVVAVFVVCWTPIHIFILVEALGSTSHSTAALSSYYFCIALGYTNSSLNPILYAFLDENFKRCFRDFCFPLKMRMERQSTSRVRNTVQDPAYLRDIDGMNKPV
Sequence of Opiate, Delta 2 (Human Recombinant) (P41143 whole entry): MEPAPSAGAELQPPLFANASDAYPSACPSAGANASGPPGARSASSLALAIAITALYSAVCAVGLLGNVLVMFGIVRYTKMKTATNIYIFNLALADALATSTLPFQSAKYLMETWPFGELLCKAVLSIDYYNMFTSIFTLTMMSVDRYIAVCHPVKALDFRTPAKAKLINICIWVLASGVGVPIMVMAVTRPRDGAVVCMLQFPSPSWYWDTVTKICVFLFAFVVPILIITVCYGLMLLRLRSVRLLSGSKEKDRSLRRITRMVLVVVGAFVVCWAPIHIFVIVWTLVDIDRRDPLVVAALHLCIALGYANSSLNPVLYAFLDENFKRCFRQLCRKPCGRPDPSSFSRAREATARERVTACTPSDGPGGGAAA

SMILES	Assay report, binding, Opiate Delta 1 (Opiate, Delta 1; 10 nm (1.0 E−8)) [%]	Assay report, binding, Opiate Delta 1 (Opiate, Delta 1; 10 μm (1.0 E−5)) [%]	Time at which blood plasma levels peak [1] [h]	Time at which the blood plasma level spikes again ([1]; from administration of oxymorphone) [h]	Assay report, binding, Opiate Delta 2 ([2]; 10 nm (1.0 E−8)) [%]	Assay report, binding, Opiate Delta 2 ([2]; 10 μm (1.0 E−5)) [%]	Assay report, binding, Opiate Kappa ([3]; 10 nm (1.0 E−8)) [%]	Assay report, binding, Opiate Kappa ([3]; 10 μm (1.0 E−5)) [%]	Assay report, binding, Opiate Mu ([4]; 10 nm (1.0 E−8)) [%]	Assay report, binding, Opiate Mu ([4]; 10 μm (1.0 E−5)) [%]	Blood plasma level that provides some analgesia ([1]; based on the pharmacokinetic studies)
CN1CC[C@]23c4c5ccc(O)c4O[C@H]2C(=O)CC[C@@]3(O)[C@H]1C5 [OXYMORPHONE, oxymorphone]	−18.26	89.03	≤ 2	4 to 6	–	–	–	–	–	–	–
CN1CC[C@]23c4c5ccc(O)c4O[C@H]2C(O)CC[C@@]3(O)[C@H]1C5 (some centres unmarked) [6-HYDROXY OXYMORPHONE, 6-hydroxy oxymorphone]	−4.12	90.48	≤ 2	–	7.19	55.45	2.45	62.47	63.16	99.91	at least 0.2 ng/mL
